Like-named read-outs stand apart in the source and are kept apart here.
How the values were obtained:
[1] = biological target: T1, human adrenergic beta2 receptor (Homo sapiens, UniProt P07550); experiment: Human adrenergic β2 receptor binding assay (3H-CGP12177, Sf9 cell membranes)
T1 construct: purchased Perkin Elmer; host or cells: Sf9 cells (overexpressed; membranes)
Protocol: Typically said beta2-adrenergic binding assay comprises: • a) providing a membrane suspension comprising Sf9 cells in an assay buffer • b) incubating with 3H-CGP12177 in plates previously treated with assay buffer containing a coating agent • c) measuring binding of test compound in the presence of propanolol • d) maintaining incubation • e) terminating the binding reactions • f) determining the affinity of the test compound for the receptor by repeating steps a) to e) using multiple different test compound concentrations. • g) calculating an IC50 using the four parameters-log equation.
Test 1: Human Adrenergic β1 and β2 Receptor Binding Assays
The study of binding to human adrenergic beta1 and beta2 receptors was performed using commercial membranes prepared from Sf9 cells where they are overexpressed (Perkin Elmer). The membrane suspensions (16 μg/well for beta1 and 5 μg/well for beta2) in assay buffer (75 mM Tris/HCl with 12.5 mM MgCl2 and 2 mM EDTA pH=7.4) were incubated with 0.14 or 0.6 nM of 3H-CGP12177 (Amersham) for beta 1 and beta 2 receptors respectively in a final volume of 250 μl, in GFC Multiscreen 96 well plates (Millipore) previously treated with assay buffer containing 0.3% PEI (Sigma). Non specific binding was measured in the presence of 1 μM propanolol. Incubation was maintained for 60 minutes at room temperature and with gentle shaking. The binding reactions were terminated by filtration and washing with 2.5 volumes of Tris/HCl 50 mM pH=7.4. The affinity of each test compound to the receptor was determined by using ten different concentrations ran in duplicate. IC50s were calculated using Activity Base software from IDBS and the four parameters-log equation.

[2] = biological target: T2, human muscarinic M3 receptor (Homo sapiens, UniProt P20309); experiment: Human muscarinic M3 receptor binding assay ([3H]-NMS, CHO-K1 cell membranes)
T2 construct: purchased Perkin Elmer; host or cells: CHO-K1 cells (membranes)
Protocol: Test 2: Human Muscarinic M1, M2, M3, M4 and M5 Receptors Binding Assays
The study of binding to human muscarinic M1, M2, M3, M4 and M5 receptors was performed using commercial membranes (Perkin Elmer) prepared from CHO-K1 cells. Radioligand binding experiments were conducted in 96 polypropylene well plates in a total volume of 200 μl. All reagents were dissolved in assay binding buffer (PBS with calcium and magnesium, SIGMA), except compounds that were dissolved in DMSO 100%. Non-specific binding (NSB) was measured in the presence of 1 μM atropine. [3H]-NMS was used as the radioligand at a concentration of 1 nM for M2, M3 and M5 and 0.3 nM for M1 and M4. [3H]-NMS and antagonists were incubated with membranes that express human muscarinic receptors M1, M2, M3, M4 and M5 at concentrations of 8.1, 10, 4.9, 4.5 and 4.9 μg/well, respectively.
After an incubation period of two hours with gentle shaking, 150 μl of the reaction mix were transferred to 96 GF/C filter plates (Millipore), previously treated with wash buffer (Tris 50 mM; NaCl 100 mM; pH:7.4), containing 0.05% PEI (Sigma) during one hour. Bound and free [3H]-NMS were separated by rapid vacuum filtration in a manifold from Millipore and washed four times with ice cold wash buffer. After drying 30 min, 30 μl of OPTIPHASE Supermix were added to each well and radioactivity quantified using a Microbeta microplate scintillation counter.
The affinity of each test compound to the receptors was determined by using ten different concentrations ran in duplicate. IC50s were calculated using Activity Base software from IDBS and the four parameters-log equation.

[3] = 0.6 nM 3H-CGP12177, Sf9 membranes 5 μg/well, 60 min room temperature, read-out: Binding, IC50, nM β2
[4] = 1 nM [3H]-NMS, CHO-K1 membranes 4.9 μg/well, two hours incubation, read-out: Binding, IC50, nM M3

T2 sequence (P20309 whole entry): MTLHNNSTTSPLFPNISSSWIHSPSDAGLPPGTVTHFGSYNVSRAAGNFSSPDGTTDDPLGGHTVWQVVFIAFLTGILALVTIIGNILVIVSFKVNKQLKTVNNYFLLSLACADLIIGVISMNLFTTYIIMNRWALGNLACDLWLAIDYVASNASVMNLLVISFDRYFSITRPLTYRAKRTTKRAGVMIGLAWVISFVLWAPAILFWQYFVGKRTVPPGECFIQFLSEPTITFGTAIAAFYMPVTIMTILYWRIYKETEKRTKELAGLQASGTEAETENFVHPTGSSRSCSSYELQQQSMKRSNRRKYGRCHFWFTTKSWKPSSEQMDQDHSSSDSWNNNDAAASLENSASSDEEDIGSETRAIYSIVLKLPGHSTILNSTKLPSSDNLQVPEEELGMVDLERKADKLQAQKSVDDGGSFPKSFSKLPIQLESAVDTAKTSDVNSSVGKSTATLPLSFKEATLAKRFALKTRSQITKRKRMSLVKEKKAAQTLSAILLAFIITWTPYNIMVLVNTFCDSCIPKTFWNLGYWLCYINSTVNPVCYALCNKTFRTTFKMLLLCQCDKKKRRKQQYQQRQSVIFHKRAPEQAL

Compound	IC50 [1, 3] [nM]	IC50 [2, 4] [nM]	IC50 [1] [nM]	IC50 [2] [nM]
trans-4-aminocyclohexyl(4-{5-[6-({[(2R)-2-hydroxy-2-(8-hydroxy-2-oxo-1,2-dihydroquinolin-5-yl)ethyl]amino}methyl)-2-oxo-1,3-benzoxazol-3(2H)-yl]pentyl}biphenyl-2-yl)carbamate dihydrofluoride [Example 29]	19	1.1	–	–
trans-4-aminocyclohexyl(4-{4-[6-({[(2R)-2-hydroxy-2-(8-hydroxy-2-oxo-1,2-dihydroquinolin-5-yl)ethyl]amino}methyl)-5-methoxy-2-oxo-1,3-benzoxazol-3(2H)-yl]butyl}biphenyl-2-yl)carbamate dihydrofluoride [Example 39]	10	0.56	–	–
(3R)-1-azabicyclo[2.2.2]oct-3-yl(4-{4-[4-(2-{[(2R)-2-hydroxy-2-(8-hydroxy-2-oxo-1,2-dihydroquinolin-5-yl)ethyl]amino}ethyl)phenoxy]butyl}biphenyl-2-yl)-carbamate di-hydrofluoride [Example 2]	18	0.24	–	–
O=C(Nc1cc(CCCCOc2ccc(CNC[C@H](O)c3ccc(O)c4[nH]c(=O)ccc34)cc2)ccc1-c1ccccc1)O[C@H]1CN2CCC1CC2 [Example 10, (3R)-1-azabicyclo[2.2.2]oct-3-yl(4-{4-[4-({[(2R)-2-hydroxy-2-(8-hydroxy-2-oxo-1,2-dihydroquinolin-5-yl)ethyl]amino}methyl)phenoxy]butyl}biphenyl-2-yl)carbamate]	–	–	69	0.57
O=C(Nc1cc(CCCCn2nc3ccc(CNC[C@H](O)c4ccc(O)c5[nH]c(=O)ccc45)cc3n2)ccc1-c1ccccc1)O[C@H]1CN2CCC1CC2 [Example 19, (3R)-1-azabicyclo[2.2.2]oct-3-yl(4-{4-[5-({[(2R)-2-hydroxy-2-(8-hydroxy-2-oxo-1,2-dihydroquinolin-5-yl)ethyl]amino}methyl)-2H-1,2,3-benzotriazol-2-yl]butyl}biphenyl-2-yl)carbamate]	–	–	6.6	0.19
trans-4-[methyl(3-phenylpropyl)amino]cyclohexyl[4-(4-{[4-({[(2R)-2-hydroxy-2-(8-hydroxy-2-oxo-1,2-dihydroquinolin-5-yl)ethyl]amino}methyl)phenyl]amino}-4-oxobutyl)biphenyl-2-yl]carbamate dihydrofluoride [Example 40]	2	0.78	–	–
(3R)-1-azabicyclo[2.2.2]oct-3-yl(4-{4-[6-({[(2R)-2-hydroxy-2-(8-hydroxy-2-oxo-1,2-dihydroquinolin-5-yl)ethyl]amino}methyl)-2-oxo-1,3-benzothiazol-3(2H)-yl]butyl}biphenyl-2-yl)carbamate dihydrofluoride [Example 16]	12	0.65	–	–
COc1cc(C(=O)NCCCc2ccc(-c3ccccc3)c(NC(=O)O[C@H]3CC[C@H](N)CC3)c2)c(Cl)cc1CNC[C@H](O)c1ccc(O)c2[nH]c(=O)ccc12 (relative stereo) [Example 52, trans-4-aminocyclohexyl[4-(3-{[2-chloro-4-({[(2R)-2-hydroxy-2-(8-hydroxy-2-oxo-1,2-dihydroquinolin-5-yl)ethyl]amino}methyl)-5-methoxybenzoyl]amino}propyl)biphenyl-2-yl]carbamate]	8.2	1.5	–	–
trans-4-aminocyclohexyl[4-(4-{[2-chloro-4-({[(2R)-2-hydroxy-2-(8-hydroxy-2-oxo-1,2-dihydroquinolin-5-yl)ethyl]amino}methyl)-5-methoxybenzoyl]amino}butyl)-biphenyl-2-yl]carbamate dihydrochloride [Example 60]	4.9	0.37	–	–
trans-4-aminocyclohexyl[4-(4-{[4-(2-{[(2R)-2-hydroxy-2-(8-hydroxy-2-oxo-1,2-dihydroquinolin-5-yl)ethyl]amino}propyl)phenyl]amino}-4-oxobutyl)biphenyl-2-yl]carbamate dihydrochloride [Example 45]	4.7	1.3	–	–
(3R)-1-azabicyclo[2.2.2]oct-3-yl(4-{3-[4-(2-{[(2R)-2-hydroxy-2-(8-hydroxy-2-oxo-1,2-dihydroquinolin-5-yl)ethyl]amino}ethyl)phenoxy]propyl}biphenyl-2-yl)carbamate dihydrofluoride [Example 17]	19	0.5	–	–
(3R)-1-azabicyclo[2.2.2]oct-3-yl(4-{3-[({[2-chloro-4-({[(2R)-2-hydroxy-2-(8-hydroxy-2-oxo-1,2-dihydroquinolin-5-yl)ethyl]amino}methyl)-5-methoxyphenyl]amino}carbonyl)oxy]propyl}biphenyl-2-yl)carbamate dihydrofluoride [Example 14]	10	0.13	–	–
